Among the data in the Kinase Knowledgebase extract (Sharma et al. 2016) are IC50 values, retold here.

This experiment addresses PIK3CA (human) (UniProt P42336). The experiment can be described thus: Assessment of PIK3CA Kinase Activity.

Chain of PIK3CA (human) (P42336 whole entry, looked up): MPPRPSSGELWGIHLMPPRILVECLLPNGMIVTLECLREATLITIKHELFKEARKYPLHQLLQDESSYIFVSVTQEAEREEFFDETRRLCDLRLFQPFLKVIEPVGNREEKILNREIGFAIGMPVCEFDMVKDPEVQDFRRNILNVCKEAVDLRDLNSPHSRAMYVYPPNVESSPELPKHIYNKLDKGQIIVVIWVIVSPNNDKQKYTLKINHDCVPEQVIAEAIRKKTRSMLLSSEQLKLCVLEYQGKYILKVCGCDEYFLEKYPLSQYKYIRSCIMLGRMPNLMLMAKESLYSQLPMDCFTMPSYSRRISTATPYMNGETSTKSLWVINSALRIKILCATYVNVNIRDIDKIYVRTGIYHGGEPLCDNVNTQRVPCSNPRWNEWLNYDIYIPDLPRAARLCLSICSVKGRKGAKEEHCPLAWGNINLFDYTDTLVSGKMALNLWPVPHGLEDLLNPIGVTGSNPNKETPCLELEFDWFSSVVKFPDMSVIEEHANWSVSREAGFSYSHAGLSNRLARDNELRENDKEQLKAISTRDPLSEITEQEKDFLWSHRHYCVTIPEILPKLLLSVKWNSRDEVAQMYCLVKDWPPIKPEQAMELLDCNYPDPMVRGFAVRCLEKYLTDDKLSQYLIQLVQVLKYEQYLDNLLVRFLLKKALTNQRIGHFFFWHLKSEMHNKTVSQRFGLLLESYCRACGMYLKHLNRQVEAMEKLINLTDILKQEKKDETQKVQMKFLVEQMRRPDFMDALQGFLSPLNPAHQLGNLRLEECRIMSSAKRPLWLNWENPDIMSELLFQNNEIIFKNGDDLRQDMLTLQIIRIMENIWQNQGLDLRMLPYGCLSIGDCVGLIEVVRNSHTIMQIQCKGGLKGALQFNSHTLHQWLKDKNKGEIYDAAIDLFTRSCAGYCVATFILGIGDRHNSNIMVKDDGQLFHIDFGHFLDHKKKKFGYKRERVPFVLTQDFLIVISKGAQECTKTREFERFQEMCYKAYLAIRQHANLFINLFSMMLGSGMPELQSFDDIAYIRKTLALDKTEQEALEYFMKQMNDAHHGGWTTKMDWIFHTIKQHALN

For the compound `CC(C)n1ncnc1-c1nc2c(s1)CCOc1cc(-c3cn(CCO)cn3)ccc1-2`, the IC50 is less than 1000 nM.
`CNS(=O)(=O)CCN1CC(c2ccc3c(c2)OCCc2sc(-c4ncnn4C(C)C)nc2-3)C1` had an IC50 of less than 1000 nM.
Take `C[C@H](O)CNC(=O)c1ccc(Cl)c(N(C)C(=O)c2cc3c(s2)-c2ccc(C(=O)NCCS(C)(=O)=O)cc2OCC3)c1`: the half-maximal inhibitory concentration (IC50) is less than 1000 nM.
Turning to `CC(C)n1ncnc1-c1nc2c(s1)CCOc1cc(C3CCN(CCS(=O)(=O)N(C)C)CC3)ccc1-2`, the concentration for half-maximal inhibition (IC50) is less than 1000 nM.
As for `Cc1nc(-c2nc3c(s2)CCOc2cc(-c4cnn(C5CNC5)c4)ccc2-3)n(C(C)C)n1`, the half-inhibitory concentration (IC50) was less than 1000 nM.
Compound `CN1CCC(CNc2ccc3c(n2)-c2sc(-c4ncnn4-c4ccc(F)cc4F)cc2CCO3)CC1` returned an IC50 of less than 1000 nM.
For the compound `CC(O)CCc1ccc2c(n1)-c1sc(-c3ncnn3-c3ccc(F)cc3F)cc1CCO2` (configuration not stated), the half-inhibitory concentration (IC50) is less than 1000 nM.
Compound `C[C@H](O)Cn1cc(-c2ccc3c(c2)OCCc2sc(-c4ncnn4CC(F)(F)F)nc2-3)cn1` showed an IC50 of less than 1000 nM.
For `Cc1nc(-c2nc3c(s2)CCOc2cc(C4CN(CCO)C4)ccc2-3)n(C(C)C)n1` the value was less than 1000 nM.
For `CC(C)n1ncnc1-c1nc2c(s1)CCOc1ccc(C3CCN(C(=O)[C@H](C)O)CC3)cc1-2` the value was less than 1000 nM.
For `FC(F)(F)Cn1ncnc1-c1nc2c(s1)CCOc1ccc(-c3cnn(CCN4CCOCC4)c3)cc1-2` the value was less than 1000 nM; for `CC(C)n1ncnc1-c1nc2c(s1)CCOc1cc(-c3cc[nH]c(=O)c3)ccc1-2`, less than 1000 nM; for `CC(=O)N1CCN(C(=O)c2nc3c(s2)CCOc2cc(-c4cn[nH]c4)ccc2-3)CC1`, less than 1000 nM.
In turn, `O=C(c1nc2c(s1)CCOc1cc(-c3cn[nH]c3)ccc1-2)N1CCCN(c2ccccn2)CC1` registered an IC50 of less than 1000 nM.
With `CN(CCc1ccccn1)C(=O)c1nc2c(s1)CCOc1cc(-c3cn[nH]c3)ccc1-2`, the IC50 was less than 1000 nM.
Take `O=C(c1nc2c(s1)CCOc1cc(-c3cn[nH]c3)ccc1-2)N1CCN(c2cnccn2)CC1`: the IC50 is less than 1000 nM.
In turn, `CC(C)n1ncnc1-c1nc2c(s1)CCOc1cc(C3CN(C(=O)C(C)(C)O)C3)ccc1-2` registered an IC50 of less than 1000 nM.
`C[C@@H]1CCN(C(=O)c2nc3c(s2)CCOc2cc(-c4cn[nH]c4)ccc2-3)C1` yielded an IC50 of less than 1000 nM.
For `CS(=O)(=O)c1cccc(-c2ccc3c(c2)OCCc2sc(-c4ncnn4CC(F)(F)F)nc2-3)c1` the value was less than 1000 nM; for `CN(C(=O)c1nc2c(s1)CCOc1cc(-c3cn[nH]c3)ccc1-2)C1CCS(=O)(=O)C1` (configuration not stated), less than 1000 nM; for `CC(O)CNc1ccc2c(n1)-c1sc(-c3ncnn3-c3ccc(F)cc3F)cc1CCO2` (configuration not stated), less than 1000 nM.
In the case of `Cc1ncccc1-c1ccc2c(n1)-c1sc(-c3nccn3C(C)C)cc1CCO2`, the half-maximal inhibitory concentration (IC50) was less than 1000 nM.
For the compound `OCCCCc1ccc2c(n1)-c1sc(-c3ncnn3-c3ccc(F)cc3F)cc1CCO2`, the IC50 was less than 1000 nM.
`CC(C)(O)Cn1cc(-c2ccc3c(c2)OCCc2sc(-c4nc(N)nn4-c4ccc(F)cc4F)nc2-3)cn1` displayed a 50% inhibitory concentration (IC50) of less than 1000 nM.
The compound `CC(C)n1ncnc1-c1nc2c(s1)CCOc1cc(C3CN(C(=O)C4(N)CC4)C3)ccc1-2` came in with a 50% inhibitory concentration (IC50) of less than 1000 nM.
On to `Cc1nc(N)ncc1-c1ccc2c(c1)-c1nc(C(=O)N(CCO)C(C)C)sc1CCO2`, for which the IC50 was less than 1000 nM.
For `Fc1ccc(-n2ncnc2-c2cc3c(s2)-c2nc(NC4CCOCC4)ccc2OCC3)c(F)c1` the value was less than 1000 nM.
`C[C@H](O)CNC(=O)c1ccc2c(c1)OCCc1sc(-c3ncnn3CC(F)(F)F)nc1-2` showed a 50% inhibitory concentration (IC50) of less than 1000 nM.
For `CC(=O)NCCNc1ccc2c(n1)-c1sc(-c3ncnn3-c3ccc(F)cc3F)cc1CCO2` the value was less than 1000 nM; for `CC(C)n1ncnc1-c1nc2c(s1)CCOc1ccc(C3CN(C(=O)OC(C)(C)C)C3)cc1-2`, less than 1000 nM; for `O=C(c1nc2c(s1)CCOc1cc(-c3cn[nH]c3)ccc1-2)N1CC[C@@H](O)C1`, less than 1000 nM.
As to `CC(C)n1ncnc1-c1cc2c(s1)-c1ccc(-c3cnn(CCO)c3)cc1OCC2`, the half-maximal inhibitory concentration (IC50) is less than 1000 nM.
The compound `CC(C)N(CCO)C(=O)c1nc2c(s1)CCOc1cc(-c3cnc(N4CCN(C)CC4)nc3)ccc1-2` yielded a 50% inhibitory concentration (IC50) of less than 1000 nM.
`O=C(c1nc2c(s1)CCOc1cc(-c3cn[nH]c3)ccc1-2)N1CCCCC1` gave a 50% inhibitory concentration (IC50) of less than 1000 nM.
For `CC(C)N(CCO)C(=O)c1nc2c(s1)CCOc1cc(-c3ccc(N4CCOCC4)nc3)ccc1-2` the value was less than 1000 nM; for `CC(C)n1ncnc1-c1nc2c(s1)CCOc1cc(C3(F)CCN(CC(=O)N(C)C)CC3)ccc1-2`, less than 1000 nM; for `O=C(c1nc2c(s1)CCOc1cc(-c3cn[nH]c3)ccc1-2)N1CCCNCC1`, less than 1000 nM.
For `CC(C)n1ncnc1-c1nc2c(s1)CCOc1ccc(-c3ccn(C(C)C)c(=O)c3)cc1-2`, the half-inhibitory concentration (IC50) was less than 1000 nM.
For `Fc1ccc(-n2ncnc2-c2cc3c(s2)-c2nc(-c4ccc(N5CCCC5)nc4)ccc2OCC3)c(F)c1` the value was less than 1000 nM; for `O=C(c1nc2c(s1)CCOc1cc(-c3cn[nH]c3)ccc1-2)N1CCCC1`, less than 1000 nM; for `CC(C)n1cnnc1-c1nc2c(s1)CCOc1cc(CNCC(F)(F)F)ccc1-2`, less than 1000 nM.
`CC(C)n1ncnc1-c1nc2c(s1)CCOc1ccc(-c3cccn(C(C)C)c3=O)cc1-2` had a half-maximal inhibitory concentration (IC50) of less than 1000 nM.
With `CC(C)n1ncnc1-c1nc2c(s1)CCOc1ccc(-c3cccnc3F)cc1-2`, the concentration for half-maximal inhibition (IC50) is less than 1000 nM.
Regarding `COc1cncc(-c2ccc3c(c2)-c2nc(-c4ncnn4C(C)C)sc2CCO3)c1`, the IC50 was less than 1000 nM.
For `CNc1ccc(-c2ccc3c(c2)-c2nc(C(=O)N(CCO)C(C)C)sc2CCO3)cn1` the value was less than 1000 nM.
For `COCc1nc(-c2nc3c(s2)CCOc2ccccc2-3)n(C(C)C)n1` the value was less than 1000 nM; for `Fc1ccc(-n2ncnc2-c2cc3c(s2)-c2nc(-c4ccc(N5CCCCC5)nc4)ccc2OCC3)c(F)c1`, less than 1000 nM.
For `Cc1nc(-c2nc3c(s2)CCOc2cc(CNC(N)=O)ccc2-3)n(C(C)C)n1` the value was less than 1000 nM; for `CC(C)n1ncnc1-c1nc2c(s1)CCOc1ccc(-c3ccn(C)c(=O)c3)cc1-2`, less than 1000 nM.
The compound `CC(=O)Nc1ccc(-c2ccc3c(n2)-c2sc(-c4ncnn4-c4ccc(F)cc4F)cc2CCO3)cn1` yielded an IC50 of less than 1000 nM.
Compound `OCCn1cc(-c2ccc3c(c2)OCCc2sc(-c4ncnn4-c4ccc(F)cc4F)nc2-3)cn1` registered a concentration for half-maximal inhibition (IC50) of less than 1000 nM.
With `CC(C)n1ncnc1-c1nc2c(s1)CCOc1ccc(C#N)cc1-2`, the IC50 was less than 1000 nM.
For `Cc1nn(C)c(=O)n1-c1nc2c(s1)CCOc1cc(-c3cnn(CC(C)(C)O)c3)ccc1-2` the value was less than 1000 nM; for `CN(C)CCN(C(=O)c1nc2c(s1)CCOc1cc(-c3cnn(CC(C)(C)O)c3)ccc1-2)C1CCCCC1`, less than 1000 nM; for `CC(C)n1ncnc1-c1nc2c(s1)CCOc1cc(C3CN(CCS(=O)(=O)N(C)C)C3)ccc1-2`, less than 1000 nM.
`CN1CCN(C(=O)C2CCN(C(=O)c3nc4c(s3)CCOc3cc(-c5cn[nH]c5)ccc3-4)CC2)CC1`: the IC50 is less than 1000 nM.
`CC(C)c1nn(C)c(=O)n1-c1nc2c(s1)CCOc1cc(-c3cnn(CCO)c3)ccc1-2` yielded an IC50 of less than 1000 nM.
For the compound `CC(C)(O)Cn1cc(-c2ccc3c(c2)OCCc2sc(-c4ncnn4CCO)nc2-3)cn1`, the IC50 is less than 1000 nM.
The compound `COCCN1CCN(C(=O)c2nc3c(s2)CCOc2cc(-c4cn[nH]c4)ccc2-3)CC1` had a half-maximal inhibitory concentration (IC50) of less than 1000 nM.
Compound `Fc1ccc(-n2ncnc2-c2cc3c(s2)-c2nc(-c4ccc(N5CCOCC5)nc4)ccc2OCC3)c(F)c1` returned an IC50 of less than 1000 nM.
As to `O=C(c1nc2c(s1)CCOc1cc(-c3cn[nH]c3)ccc1-2)N1CCN(CCO)CC1`, the IC50 was less than 1000 nM.
In turn, `O=C(c1nc2c(s1)CCOc1cc(-c3cn[nH]c3)ccc1-2)N1CCC(C(=O)N2CCCC2)CC1` showed an IC50 of less than 1000 nM.
In the case of `CS(=O)(=O)CCNc1ccc(-c2ccc3c(n2)-c2sc(-c4ncnn4-c4ccc(F)cc4F)cc2CCO3)cn1`, the concentration for half-maximal inhibition (IC50) is less than 1000 nM.
`CC(C)n1ncnc1-c1nc2c(s1)CCOc1cc(C3CN(C(C)(C)CO)C3)ccc1-2`: the IC50 is less than 1000 nM.
Consider `CN1CCN(C(=O)c2ccc(Cl)c(N(C)C(=O)c3cc4c(s3)-c3ccc(C(=O)NCCS(C)(=O)=O)cc3OCC4)c2)CC1`, for which the IC50 was less than 1000 nM.
As for `CC(C)Oc1cc(-c2ccc3c(c2)-c2nc(-c4ncnn4C(C)C)sc2CCO3)ccn1`, the IC50 is less than 1000 nM.
For `Nc1nc(-c2cc3c(s2)-c2ccc(C(=O)NC4COC4)cc2OCC3)n(-c2ccc(F)cc2F)n1` the value was less than 1000 nM; for `NCCn1cc(-c2ccc3c(c2)OCCc2sc(-c4ncnn4CC(F)(F)F)nc2-3)cn1`, less than 1000 nM; for `CN1CCC(CNc2ccc3c(n2)-c2sc(-c4ncnn4-c4ccc(F)cc4F)cc2CCO3)C1` (configuration not stated), less than 1000 nM.
In the case of `CC(C)(CO)n1cc(-c2ccc3c(c2)OCCc2sc(-c4ncnn4CC(F)(F)F)nc2-3)cn1`, the IC50 was less than 1000 nM.
For `CC(C)n1ncnc1-c1nc2c(s1)CCOc1ccc(-c3ccc(N4CCOCC4)nc3)cc1-2` the value was less than 1000 nM; for `CC(C)(O)Cn1cc(-c2ccc3c(c2)OCCc2sc(-c4ncnn4Cc4ccccn4)nc2-3)cn1`, less than 1000 nM; for `OC1CCN(c2ccc3c(n2)-c2sc(-c4ncnn4-c4ccc(F)cc4F)cc2CCO3)CC1`, less than 1000 nM.
For `Cc1nc(-c2nc3c(s2)CCOc2cc(C4CN(CC(=O)NC(C)C)C4)ccc2-3)n(C(C)C)n1` the value was less than 1000 nM.
For the compound `O=C(c1nc2c(s1)CCOc1cc(-c3cn[nH]c3)ccc1-2)N1CCC[C@@H]1Cc1ccccn1`, the half-maximal inhibitory concentration (IC50) is less than 1000 nM.
The compound `O=C(NCC(F)F)c1ccc2c(c1)OCCc1sc(-c3ncnn3CC(F)(F)F)nc1-2` came in with an IC50 of less than 1000 nM.
Turning to `Cc1ccncc1-c1ccc2c(c1)-c1nc(-c3ncnn3C(C)C)sc1CCO2`, the half-maximal inhibitory concentration (IC50) is less than 1000 nM.
For `CNC(=O)c1ccc2c(c1)OCCc1cc(C(=O)N(C)c3cc(C(=O)NCCO)ccc3Cl)sc1-2`, the IC50 is less than 1000 nM.
In the case of `O=C(c1nc2c(s1)CCOc1cc(-c3cn[nH]c3)ccc1-2)N1CCN(C(=O)C2CC2)CC1`, the IC50 is less than 1000 nM.
For `CC(C)n1ncnc1-c1nc2c(s1)CCOc1cc(C3CCN(CC(=O)NC(C)(C)C)CC3)ccc1-2` the value was less than 1000 nM; for `CNC(=O)c1ccc2c(c1)OCCc1cc(C(=O)N(C)c3cc(C(=O)N4CC(F)(F)C4)ccc3Cl)sc1-2`, less than 1000 nM; for `CC(C)n1ncc(CO)c1-c1cc2c(s1)-c1nc(Cl)ccc1OCC2`, less than 1000 nM.

The term IC50 denotes the point on the concentration scale where inhibition reaches its midpoint. Read a high IC50 as lower potency.
